For data set [1], the system named is HA-SSTR2. Kind of data set: SSTR2 internalization in HEK293 cells, confocal microscopy. The data set is classed as cell-based, human. Particulars: 1 µM agonist, 30 min 37 °C. As to the method: (§1) HEK293 cells obtained from DSMZ (Braunschweig, Germany) were transfected with plasmid encoding […] HA-tagged SSTR2, SSTR3 or SSTR5 receptors.
(§2) HEK293 cells stably expressing HA-tagged hSSTR cultures were preincubated with anti-HA antibody for 2 h at 4 °C and then exposed to 1 µM agonist for 30 min at 37 °C before fixing and further labeling with Alexa488-conjugated secondary antibody. After mounting with Roti®-MountFluorCare DAPI, cultures were examined using a Zeiss LSM510 META laser scanning confocal microscope (Zeiss, Jena, Germany) (see Supplementary Materials for details).
(§3) GH produced by primary cultures was tested by ELISA assay using Rat Growth Hormone Biotrak Enzyme immunoassay Mouse/Rat Growth ELISA (DSL-10-72100) or Rat/Mouse Growth Hormone ELISA (Millipore EZRMGH-45K) diluting supernatants 1:20, according to manufacturer’s instructions. […]
(§4) U2OS recombinant cell lines were obtained from Innoprot (Derio, Spain). […] Nuclei were stained using DAPI (2 μg/ml) and the ﬂuorescence was measured using a BD Pathway 855 High-Content Bioimager from Becton Dickinson. The receptor internalization was calculated using AttoVision Software. […]
(§5) Agonist activity of test compounds was calculated relatively to positive control

Data set [2] deals with HA-SSTR3. The experiment in a line: SSTR3 internalization in HEK293 cells, confocal microscopy. The data set is classed as cell-based, human. Conditions: 1 µM agonist, 30 min 37 °C. As to the method:
as §1, §2, §3, §4, §5

The test system of data set [3] is SSTR3-tGFP. The experiment in a line: Receptor internalization in U2OS-transfected cells (SSTR3-tGFP). The data set is classed as cell-based, human. Conditions: 3 h, high-content imaging, n = 3, method: percentage of activity relative to SST28 10^−6 M. On the procedure:
Compounds were tested at five concentrations (10^−5, 10^−6, 10^−7, 10^−8, 10^−9 M) in comparison to untreated cells.
SST agonists were added to U2OS recombinant cell lines in OptiMeM medium (Life technologies 51985-034, Monza, Italy) for 3 h (SSTR2, SSTR3) or 7 h (SSTR5) (n = 3). After formaldehyde fixation, nuclei were stained using DAPI (2 µg/mL), and the fluorescence was measured with BD Pathway 855 High-Content Bioimager from Becton Dickinson. The receptor internalization was calculated using AttoVision 1.6 Software. Approximately 500 cells per field were analyzed. […]
(Invitrogen, Carlsbad, CA). Stable transfectants were selected in the presence of 500 µg/ml G-418. […]
% picric acid in phosphate buﬀer (pH 6.9) for 30 minutes at room temperature (RT). […]
3.2. U2OS human cell lines transfected with human receptors (SSTR2-tGFP, SSTR3-tGFP,
Compounds were tested at ﬁve d iﬀerent concentrations (10-5, 10-6, 10-7, 10-8, 10^-9 M) in comparison to untreated cells.
as §4, §5

Data set [4] relates to κ (KOP). The experiment in a line: Single-dose binding assay on κ opioid receptor. Particulars: 10^−5 M.
The conditions of data set [5]: at high doses; ref manuscript in preparation; cited from earlier work. The source says:
One important aspect relates to safety margins. Hyperglycemia is a common side effect of SSTR panagonists such as Pasireotide. […] What remains to be ascertained clinically is whether the higher agonistic activity on SSTR3 may allow us to define a dose at which full receptor engagement is observed in the absence of significant hyperglycemia.

The conditions of data set [6]: species, matrix, method and reference not given; cited from earlier work.
In data set [7] the test system is HA-SSTR3. The experiment in a line: SSTR3 phosphorylation, Western blot with phosphosite-specific antibodies, HEK293-transfected. The data set is classed as cell-based, human. Conditions: HEK293 stably expressing HA-SSTR3, agonist 5 min 37 °C. Also on record: key: + = very low activity; ++ = low activity; +++ = high activity; ++++ = very high activity. As to the method: Western blot analysis was performed as previously described.
Next, the activation of human SSTRs induced by SSAs was tested by Western blot using phosphosite-specific antibodies directed against the following residues: S341/pS343 for SSTR2; S337/T341 for SSTR3; T333 for SSTR5 [31].
4.1. Western blot analysis
Western blot analysis was performed as previously described.7–9 Brieﬂy, HEK293 cells stably expressing the human somatostatin receptors were seeded onto poly-L-lysine-coated 60 mm dishes and grown to 90 % confluency. […]
PierceTM HA epitope tag antibody beads (Thermo Scientific, Rockford, USA) were used to enrich HA-tagged somatostatin receptors or wheat germ lectin-agarose beads for no-tagged somatostatin receptors. To elute proteins from the beads, the samples were incubated in SDS sample buffer for 20 min at 60°C. Supernatants were separated from the beads, loaded on 8% SDS polyacrylamide gels and immunoblotted onto nitrocellulose membranes afterwards. After blocking, membranes were incubated with phosphorylation state-speciﬁc somatostatin receptor antibodies: pS337/pT341-SST3 (7TM0357A), […]
Antibodies GmbH, Jena, Germany) at a dilution of 1:1000 at 4°C overnight. Membranes were incubated in HRP-linked secondary antibody for 2 hours, followed by detection using a chemiluminescence system (90 mM p-coumaric-acid, 250 mM luminol, 30% […]
according to the manufacturer’s instructions.

Data set [8] has as its system HA-tagged SSTR5. Kind of data set: SSTR5 internalization in HEK293 cells, confocal microscopy. Particulars: 1 µM agonist, 30 min 37 °C. The format is cell-based, human. As to the method: as §1, §2, §3, §4, §5
Data set [9] concerns the target T1, hSSTR3 (Homo sapiens, UniProt P32745).
T1 construct: expressed in transfected cells; host or cells: CHO-K1 (membranes)
The experiment in a line: Radioligand binding to human SSTR3. Particulars: from binding IC50.
Method: Data were analyzed with XLfit (IDBS) software (version 5.3.1.3) using nonlinear regression applied to a sigmoidal dose–response model. Agonist activity of test compounds is expressed as a percentage of the activity of the reference agonist at its EC100 concentration.
After 60 min at 25°C in a water bath, samples were ﬁltered over GF/B ﬁlters (Perkin
Elmer, 6005177) presoaked in 0.5% PEI for 2h at RT) with a Filtermate Harvester (Perkin
Elmer ). Filters were washed 6 times with 0.5 ml of ice-cold ﬁltration buﬀer, incubated 15
min. on an orbital shaker with 50 µl of Microscint 20 (Packard) and counted for
radioactivity with a TopCountTM or MicroBetaTM for 1 min/well.
Dose-response curve were performed for each SSTR (agonist range 10-11 – 3x10-7 M),
Each point was performed in duplicate2,3
Dose-response data from test compounds were analysed with XLﬁt (IDBS) software
using nonlinear regression applied to a sigmoidal dose-response model.
Agonist activity of test compounds is expressed as a percentage of the activity of the
reference agonist at its EC100 concentration.

The subject of data set [10] is µ (MOP) (h). The experiment in a line: Single-dose binding assay on µ opioid receptor. Particulars: 10^−5 M. Also on record: species or system human.

T1 sequence (P32745 whole entry): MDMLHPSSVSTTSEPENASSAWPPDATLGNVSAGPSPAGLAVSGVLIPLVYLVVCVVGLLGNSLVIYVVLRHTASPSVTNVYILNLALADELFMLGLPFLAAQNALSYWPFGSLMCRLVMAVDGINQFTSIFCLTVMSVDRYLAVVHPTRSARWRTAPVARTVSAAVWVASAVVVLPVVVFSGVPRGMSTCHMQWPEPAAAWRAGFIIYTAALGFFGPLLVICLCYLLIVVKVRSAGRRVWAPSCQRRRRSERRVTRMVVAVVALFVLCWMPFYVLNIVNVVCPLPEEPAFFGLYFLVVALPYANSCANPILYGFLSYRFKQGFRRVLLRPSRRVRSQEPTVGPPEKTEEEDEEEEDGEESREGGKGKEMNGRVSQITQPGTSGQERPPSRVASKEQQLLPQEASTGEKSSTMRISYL

As for `COc1cc2cccc(OC)c2cc1C[C@H]1NC(=O)[C@H](Cc2ccc(O)cc2)NC(=O)[C@@H]2C[C@@H](OC(=O)NCCN)CN2C(=O)[C@H](Cc2ccccc2)NC(=O)[C@H](Cc2ccc(OCc3ccccc3)cc2)NC(=O)[C@H](CCCCN)NC1=O` [ITF2984, Cyclo[Tyr(Bn)-Phe-Pro(4-OCONH(CH2)2NH2)-Tyr-3,8-diMeONal-Lys]], the “internalization of SSTR2 in transfected HEK293 cells” value in [1] is on record as “partial internalization”. Moreover, the “internalization of SSTR3 in transfected HEK293 cells” value in data set [2] was “strong internalization”. Moreover, the “Receptor internalization in U2OS-transfected cells, SSTR3, at 10^−5 M” value in [3] (10^−5 M) amounted to 61.1. In addition, in data set [3] (10^−6 M), the “Receptor internalization in U2OS-transfected cells, SSTR3, at 10^−6 M (value in brackets)” value stood at 62.5. Further, the “Percentage of inhibition of opioid receptor κ (KOP) (agonist)” value in [4] was 97%. Further, the “glycemia in clinical studies” value in data set [5] is given as “increased glycemia”. In addition, the Half-time life in [6] is 18 h. Also, in [7], the “Phosphorylation SSTR sites (HEK293-transfected): SSTR3—PS337/T341” value was “++++” and the “Phosphorylation SSTR sites (HEK293-transfected): SSTR3—PT438” value is “++++”. In addition, the “internalization of SSTR5 in transfected HEK293 cells” value in data set [8] was “partial internalization”. Further, in data set [9], the “improved affinity for SSTR3 compared to Octreotide or Pasireotide” value is recorded as 10 fold. In data set [10], the “Percentage of inhibition of opioid receptor µ (MOP) (h) (agonist)” value turned out to be 97%.

These data come from PMC10340464, “Identification of a Novel SSTR3 Full Agonist for the Treatment of Nonfunctioning Pituitary Adenomas” (Cancers, 2023).
